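Values below derive from 48-hour exposures of cells grown in 96-well plates, with endpoints linearly interpolated between the two concentrations bracketing the appropriate inhibition level. GI50 = concentration required for 50% inhibition of growth.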 Active and inactive are the calls of the source. No stated cut-off is given here; in the data, active = GI50 up to about 1.1 µM and inactive = higher.
What was measured:
Test in all cases: NCI tumour cell line growth inhibition, 48 h
MCF7 = tested on: MCF7
HT-29 = tested on: HT-29
DU-145 = tested on: DU-145
LXFL 529 = tested on: LXFL 529
DMS-273 = tested on: DMS-273
NCI-H522 = tested on: NCI-H522
COLO 205 = tested on: COLO 205
SK-OV-3 = tested on: SK-OV-3
HOP-18 = tested on: HOP-18
SN12C = tested on: SN12C
HCT-15 = tested on: HCT-15
KM12 = tested on: KM12
EKVX = tested on: EKVX
RXF 393 = tested on: RXF 393
SNB-78 = tested on: SNB-78
TK-10 = tested on: TK-10
SF-539 = tested on: SF-539
HL-60 = tested on: HL-60
RPMI-8226 = tested on: RPMI-8226
LOX IMVI = tested on: LOX IMVI
UACC-257 = tested on: UACC-257
A498 = tested on: A498
786-0 = tested on: 786-0
IGROV-1 = tested on: IGROV-1
U-251 = tested on: U-251
DMS-114 = tested on: DMS-114
DLD-1 = tested on: DLD-1
SK-MEL-28 = tested on: SK-MEL-28
UO-31 = tested on: UO-31
PC-3 = tested on: PC-3
M19-MEL = tested on: M19-MEL
SW-620 = tested on: SW-620
HOP-92 = tested on: HOP-92
K562 = tested on: K562
Hs-578T = tested on: Hs-578T
OVCAR-8 = tested on: OVCAR-8
UACC-62 = tested on: UACC-62
HCC 2998 = tested on: HCC 2998
OVCAR-3 = tested on: OVCAR-3
MDA-MB-231 = tested on: MDA-MB-231
ACHN = tested on: ACHN
T47D = tested on: T47D
MOLT-4 = tested on: MOLT-4
OVCAR-5 = tested on: OVCAR-5
KM-20L2 = tested on: KM-20L2
Malme-3M = tested on: Malme-3M
SR = tested on: SR
SK-MEL-2 = tested on: SK-MEL-2
M14 = tested on: M14
OVCAR-4 = tested on: OVCAR-4
BT-549 = tested on: BT-549
A549 = tested on: A549
HCT-116 = tested on: HCT-116
SNB-75 = tested on: SNB-75
SK-MEL-5 = tested on: SK-MEL-5
MDA-MB-435 = tested on: MDA-MB-435
HOP-62 = tested on: HOP-62
MDA-N = tested on: MDA-N
SF-268 = tested on: SF-268
CAKI-1 = tested on: CAKI-1
NCI-H460 = tested on: NCI-H460
SF-295 = tested on: SF-295
SNB-19 = tested on: SNB-19
CCRF-CEM = tested on: CCRF-CEM
NCI-H226 = tested on: NCI-H226
NCI-H23 = tested on: NCI-H23
XF498 = tested on: XF498

Measured: GI50

COc1ccc2[nH]c3c4c(ccc3c2c1)C(=O)C=CC4=O
4.42 µM: HCT-15
active: HL-60 0.439 µM | MOLT-4 0.448 µM | SR 0.333 µM | CCRF-CEM 0.324 µM
inactive: MCF7 10.8 µM | HT-29 20.3 µM | DU-145 34.8 µM | LXFL 529 5.02 µM | DMS-273 16.2 µM | NCI-H522 1.74 µM | COLO 205 5.3 µM | SK-OV-3 43.4 µM | HOP-18 10.8 µM | SN12C 11 µM | KM12 21.6 µM | EKVX 16.4 µM | RXF 393 2.48 µM | SNB-78 16.3 µM | TK-10 14.6 µM | SF-539 15.7 µM | RPMI-8226 2.08 µM | LOX IMVI 9.31 µM | UACC-257 10 µM | A498 31.3 µM | 786-0 11.4 µM | IGROV-1 16 µM | U-251 17.1 µM | DMS-114 11.8 µM | DLD-1 2.54 µM | SK-MEL-28 8.2 µM | UO-31 14.8 µM | PC-3 18.7 µM | M19-MEL 14.3 µM | SW-620 2.39 µM | HOP-92 3.34 µM | K562 1.53 µM | Hs-578T 24.3 µM | OVCAR-8 5.22 µM | UACC-62 16.7 µM | HCC 2998 22.5 µM | OVCAR-3 8.36 µM | MDA-MB-231 17.4 µM | ACHN 4.76 µM | T47D 2.64 µM | OVCAR-5 20.4 µM | KM-20L2 18.9 µM | Malme-3M 7.73 µM | SK-MEL-2 13.8 µM | M14 10 µM | OVCAR-4 15 µM | BT-549 27.8 µM | A549 28.6 µM | HCT-116 3.62 µM | SNB-75 18.8 µM | SK-MEL-5 18.9 µM | MDA-MB-435 25.9 µM | HOP-62 51.2 µM | MDA-N 16.2 µM | SF-268 17.1 µM | CAKI-1 9.25 µM | NCI-H460 24.8 µM | SF-295 24.7 µM | SNB-19 40.5 µM | NCI-H226 21.6 µM | NCI-H23 12.7 µM

Cn1cc(C(=O)C[n+]2ccccc2)c2ccccc21
> 100 µM: HCT-15
inactive: HT-29 48.5 µM | LXFL 529 > 10 µM | DMS-273 42.3 µM | NCI-H522 56 µM | COLO 205 52.2 µM | SN12C 62.4 µM | KM12 50.2 µM | EKVX 11.9 µM | TK-10 > 100 µM | SF-539 78.3 µM | HL-60 > 100 µM | RPMI-8226 > 100 µM | LOX IMVI > 100 µM | UACC-257 > 100 µM | A498 28.9 µM | 786-0 > 100 µM | IGROV-1 72.1 µM | DMS-114 49.7 µM | DLD-1 > 100 µM | UO-31 > 100 µM | M19-MEL 59.8 µM | SW-620 > 100 µM | K562 33.6 µM | OVCAR-8 58.6 µM | UACC-62 > 100 µM | HCC 2998 > 100 µM | XF498 86.9 µM | OVCAR-3 20.9 µM | ACHN > 100 µM | MOLT-4 54.7 µM | KM-20L2 33 µM | Malme-3M 69.7 µM | SR > 100 µM | SK-MEL-2 > 100 µM | M14 > 100 µM | OVCAR-4 46.1 µM | A549 50.6 µM | HCT-116 > 100 µM | SNB-75 69.2 µM | SK-MEL-5 > 100 µM | HOP-62 83.8 µM | CAKI-1 30.3 µM | NCI-H460 > 100 µM | SF-295 38.4 µM | SNB-19 52.8 µM | CCRF-CEM 61.9 µM | NCI-H226 12.5 µM | NCI-H23 > 100 µM

From ChEMBL document CHEMBL1201862, “PubChem BioAssay data set” (2004)
